Assay results taken from publication PMC10011554, “BET inhibitor trotabresib in heavily pretreated patients with solid tumors and diffuse large B-cell lymphomas” (Nature Communications, 2023).
Where “and” joins values, the source holds several entries; their conditions need not be identical. Equal values may be shown once. Read-outs that look alike come from different tables or passages of the source.

Experiments:
three TNBC models = tested on: three TNBC models; set-up: method as in Investigator's Brochure; settings: ref Investigator's Brochure, read-out: overall mean IC50, colony formation; cited from earlier work
U-2932 (ABC DLBCL) = tested on: U-2932 (ABC DLBCL); set-up: method as in Report CC-90010-Pharm-1018; settings: read-out: absolute IC50, proliferation, cited from earlier work
[1] = tested on: CYP1A2, CYP2A6, CYP2B6, CYP2C8, CYP2C9, CYP2C19, CYP2D6, CYP2E1, and CYP3A4/5; set-up: method as in Investigator's Brochure; settings: all nine isozymes tested, ref Investigator's Brochure; cited from earlier work
[2] = set-up: method as in Investigator's Brochure; settings: ref Investigator's Brochure, cited from earlier work
OAT3 = tested on: OAT3; set-up: method as in Investigator's Brochure; settings: OAT3, 30 µM, ref Investigator's Brochure; cited from earlier work
CYP2C8 = tested on: CYP2C8; set-up: method as in Investigator's Brochure; settings: CYP2C8, ref Investigator's Brochure; read-out: IC50, direct inhibition; cited from earlier work
OATP1B3 = tested on: OATP1B3; set-up: method as in Investigator's Brochure; settings: OATP1B3, 30 µM, ref Investigator's Brochure; cited from earlier work
[3] = tested on: CYP1A2, CYP2B6 and CYP3A4 mRNA; set-up: method as in Investigator's Brochure; settings: 0.01 to 10 µM, up to 3 days, CYP1A2, CYP2B6, CYP3A4, ref Investigator's Brochure; cited from earlier work
[4] = set-up: method as in Investigator's Brochure; settings: 2 hours postdose, ref Investigator's Brochure, cited from earlier work
[5] = ref Investigator's Brochure, cited from earlier work
[6] = tested on: TNBR3 TNBC PDX-derived model; set-up: method as in Investigator's Brochure; settings: TNBR3, ref Investigator's Brochure; read-out: IC50, colony formation; cited from earlier work
COH70 TNBC PDX = tested on: COH70 TNBC PDX; set-up: method as in Unpublished data from Celgene Corporation; settings: Day 38, ref Unpublished data from Celgene Corporation, cited from earlier work
[7] = set-up: method as in Investigator's Brochure; settings: ref Investigator's Brochure, cited from earlier work; remark: listed apart in the source
SU-DHL-4 (GCB DLBCL) = tested on: SU-DHL-4 (GCB DLBCL); set-up: method as in Report CC-90010-Pharm-1018; settings: read-out: absolute IC50, proliferation, cited from earlier work
CCR1 mRNA = test: Blood CCR1 mRNA levels (QuantiGene, normalized to PPIB); assay type: in vivo, human; settings: for decrease of blood PD marker CCR1 achieved: part A
Protocol: Changes in peripheral CCR1 mRNA levels, expression of which is modulated following BET inhibition, were assessed using QuantiGene technology (Thermo Fisher Scientific) and normalized to the expression of a control gene, peptidylprolyl isomerase B (PPIB). The data were presented as a percentage of pre-dose mRNA levels.

Cn1cc(-c2cc(S(C)(=O)=O)ccc2OCC2CC2)c2ccccc2c1=O [trotabresib]
IC50 (three TNBC models): 110 ± 40 nM
IC50 (U-2932 (ABC DLBCL); U-2932, Experiment 1, ref Report CC-90010-Pharm-1018): 150 nM
IC50 (U-2932 (ABC DLBCL); U-2932, Table 2, ref Report CC-90010-Pharm-1018): 167 nM
time-dependent inhibition [1]: little to no time-dependent
accumulation after repeat dosing ([2]; rats, toxicokinetics): no accumulation in rats
clearance in male vs female rats [2]: approximately 2 fold
inhibition of mediated transport (OAT3): 53.6%
IC50 (CYP2C8): ≥ 13900 nM
inhibition of mediated transport (OATP1B3): 58.3%
increase in mRNA over vehicle control [3]: < 2 fold
maximally-measured tumor level ([4]; COH70, 2 mg/kg): 1.3 ± 0.3 µM
maximally-measured tumor level ([4]; COH70, 10 mg/kg): 6.7 ± 1.7 µM
severely toxic dose ([5]; 4-week Beagle dog study): 7.50 mg base/kg/dose
cardiovascular and respiratory effects ([5]; conscious Beagle dogs): no CC-90010-related effects on electrocardiograms, heart rate
highest non-severely toxic dose (HNSTD) ([5]; dog, 3-days-on/4-days-off schedule): 3.75 mg base/kg/dose
mean exposure corresponding to the dog HNSTD [5]: 10000 ng·h/mL
IC50 [6]: 80 nM
mean percent TGI (COH70 TNBC PDX; COH70, 12.5 mg/kg/dose PO QD 3 days on/4 days off): 64%
mean percent TGI (COH70 TNBC PDX; COH70, 16 mg/kg/dose PO QD 3 days on/4 days off): 68%
mean percent TGI (COH70 TNBC PDX; COH70, 20 mg/kg/dose PO QD 3 days on/4 days off): 72%
severely toxic dose ([7]; 4-week rat study, 3 days on/4 days off): ≥ 20 mg base/kg/dose
overarching rat STD10 ([7]; 3 days-on/4 days-off schedule): 20 mg base/kg/dose
STD10 ([7]; female rats): 20 mg base/kg/dose
STD10 ([7]; male rats): 30 mg base/kg/dose
functional observational battery (FOB) effects ([7]; rat): no CC-90010-related FOB effects
mean exposure corresponding to the rat STD10 [7]: 52800 ng·h/mL
IC50 (SU-DHL-4 (GCB DLBCL); SU-DHL-4, Experiment 1, ref Report CC-90010-Pharm-1018): 160 nM
IC50 (SU-DHL-4 (GCB DLBCL); SU-DHL-4, Table 2, ref Report CC-90010-Pharm-1018): 304 nM
decrease of blood PD marker CCR1 achieved (CCR1 mRNA; 30 mg 3-days-on/11-days off, 4 hours post last dose in the first cycle): ≥ 50%
decrease of blood PD marker CCR1 achieved (CCR1 mRNA; 45 mg 4-days-on/24-days-off): ≥ 50%
percentage of baseline CCR1 expression, individual patients (CCR1 mRNA; part B, 30 mg/day (n = 2), 4 h after last dose): 13.4467 % of baseline and 130.198 % of baseline
percentage of baseline CCR1 expression, individual patients (CCR1 mRNA; part B, 30 mg/day (n = 3), 4 h after first dose): 50.27 % of baseline and 55.3963 % of baseline and 80.5103 % of baseline
Mean CCR1 mRNA level (CCR1 mRNA; part B, 45 mg/day 4 days on/24 days off, 4 h after the first and last dose): < 50 % of baseline
mean reduction of blood CCR1 mRNA (CCR1 mRNA; part B, 45 mg/day 4 days on/24 days off, after the first and last dose): > 50%
percentage of baseline CCR1 expression, individual patients Pt 1-16 (CCR1 mRNA; part B, 45 mg/day 4 days on/24 days off, time 2 h): 30.5369 % of baseline and 28.4986 % of baseline and 30.4914 % of baseline and 56.7025 % of baseline and 34.2349 % of baseline and 126.292 % of baseline and 41.5689 % of baseline and 39.5781 % of baseline and 38.6952 % of baseline
percentage of baseline CCR1 expression, individual patients Pt 1-16 (CCR1 mRNA; part B, 45 mg/day 4 days on/24 days off, time 72 h): 11.6428 % of baseline and 66.6434 % of baseline and 61.1466 % of baseline and 71.42 % of baseline and 107.064 % of baseline and 92.4076 % of baseline and 206.706 % of baseline and 11.5951 % of baseline and 29.4034 % of baseline and 32.6074 % of baseline and 46.3108 % of baseline and 35.5399 % of baseline and 51.254 % of baseline and 16.3541 % of baseline and 56.3318 % of baseline and 47.472 % of baseline
percentage of baseline CCR1 expression, individual patients Pt 1-16 (CCR1 mRNA; part B, 45 mg/day 4 days on/24 days off, time 74 h): 7.664 % of baseline and 43.5783 % of baseline and 101.397 % of baseline and 68.6148 % of baseline and 66.624 % of baseline and 90.5744 % of baseline and 6.3621 % of baseline and 11.918 % of baseline and 23.0451 % of baseline and 38.3287 % of baseline and 18.1003 % of baseline and 30.2477 % of baseline and 30.0183 % of baseline and 30.3305 % of baseline
percentage of baseline CCR1 expression, individual patients Pt 1-16 (CCR1 mRNA; part B, 45 mg/day 4 days on/24 days off, time 76 h): 7.416 % of baseline and 22.7163 % of baseline and 45.8741 % of baseline and 84.9845 % of baseline and 62.1329 % of baseline and 102.299 % of baseline and 97.8745 % of baseline and 12.7872 % of baseline and 26.7231 % of baseline and 38.7251 % of baseline and 59.7173 % of baseline and 32.5849 % of baseline and 15.5412 % of baseline and 32.2909 % of baseline and 34.1593 % of baseline
percentage of baseline CCR1 expression, individual patients Pt 1-16 (CCR1 mRNA; part B, 45 mg/day 4 days on/24 days off, time 96 h): 18.2209 % of baseline and 101.061 % of baseline and 57.0673 % of baseline and 66.6995 % of baseline and 126.329 % of baseline and 107.431 % of baseline and 11.7759 % of baseline and 20.7746 % of baseline and 24.4742 % of baseline and 39.7466 % of baseline and 30.1049 % of baseline and 35.253 % of baseline and 12.8666 % of baseline and 60.4272 % of baseline and 48.4025 % of baseline
percentage of baseline CCR1 expression, individual patients Pt 1-16 (CCR1 mRNA; part B, 45 mg/day 4 days on/24 days off, time 168 h): 1110.93 % of baseline and 46.7528 % of baseline and 137.362 % of baseline and 245.348 % of baseline and 178.841 % of baseline and 306.585 % of baseline and 142.224 % of baseline and 191.429 % of baseline and 72.8857 % of baseline and 69.6406 % of baseline and 101.659 % of baseline and 69.3899 % of baseline and 160.385 % of baseline and 78.4141 % of baseline and 220.588 % of baseline
percentage of baseline CCR1 expression, individual patients Pt 1-16 (CCR1 mRNA; part B, 45 mg/day 4 days on/24 days off, time 192 h): 44.5123 % of baseline and 125.959 % of baseline and 259.615 % of baseline and 202.75 % of baseline and 242.493 % of baseline and 146.374 % of baseline and 154.035 % of baseline and 288.7 % of baseline and 109.004 % of baseline and 72.27 % of baseline and 78.3761 % of baseline and 79.513 % of baseline and 168.811 % of baseline and 147.701 % of baseline and 179.93 % of baseline
percentage of baseline CCR1 expression, individual patients (CCR1 mRNA; part B, 45 mg/day (n = 15), 4 h after last dose): 26.7231 % of baseline and 32.2909 % of baseline and 32.5849 % of baseline and 34.1593 % of baseline and 38.7251 % of baseline and 45.8741 % of baseline and 59.7173 % of baseline and 62.1329 % of baseline and 84.9845 % of baseline and 97.8745 % of baseline and 102.299 % of baseline and 7.416 % of baseline and 12.7872 % of baseline and 15.5412 % of baseline and 22.7163 % of baseline
percentage of baseline CCR1 expression, individual patients (CCR1 mRNA; part B, 45 mg/day (n = 16), 4 h after first dose): 31.799 % of baseline and 32.0053 % of baseline and 36.1061 % of baseline and 40.3422 % of baseline and 46.5342 % of baseline and 46.6648 % of baseline and 52.9092 % of baseline and 58.7813 % of baseline and 59.2329 % of baseline and 60.0574 % of baseline and 60.1703 % of baseline and 87.3968 % of baseline and 24.9251 % of baseline and 27.9014 % of baseline and 28.1552 % of baseline and 31.5602 % of baseline
